Assay [1] addresses T1, human cloned 5-HT2A receptor, expressed in L929 cells (Homo sapiens, UniProt P28223).
T1 construct: expressed in transfected cells; host or cells: L929 cells
Nature of the assay: In vitro radioligand binding affinity for 5-HT2A receptor ([125I]R91150). The settings on record: for IC50: human cloned receptor in L929 cells, [125I]R91150, read-out: 5-HT2A pIC50 (converted). On the procedure:
(§1) The interaction of the compounds of Formula (I) with 5-HT2A and 5-HT2C receptors was assessed in in vitro radioligand binding experiments. In general, a low concentration of a radioligand with a high binding affinity for the receptor is incubated with a sample of a tissue preparation enriched in a particular receptor (1 to 5 mg tissue) in a buffered medium (0.2 to 5 ml). During the incubation, the radioligands bind to the receptor. When equilibrium of binding is reached, the receptor bound radioactivity is separated from the non-bound radioactivity, and the receptor bound activity is counted. The interaction of the test compounds with the receptors is assessed in competition binding experiments. Various concentrations of the test compound are added to the incubation mixture containing the tissue preparation and the radioligand. Binding of the radioligand will be inhibited by the test compound in proportion to its binding affinity and its concentration. The affinities of the compounds for the 5-HT2 receptors were measured by means of radioligand binding studies conducted with: (a) human cloned 5-HT2A receptor, expressed in L929 cells using [^125I]R91150 as radioligand and (b) human cloned 5-HT2C receptor, expressed in CHO cells using [^3H]mesulergine as radioligand.
(§2) The results are given in Table 3 below in terms of pIC50 values for the respective compounds.

The target in assay [2] is T2, human Dopamine D2L receptor (Homo sapiens, UniProt P14416).
T2 construct: expressed in transfected cells; host or cells: CHO cells (membranes)
T2 sequence (P14416 whole entry): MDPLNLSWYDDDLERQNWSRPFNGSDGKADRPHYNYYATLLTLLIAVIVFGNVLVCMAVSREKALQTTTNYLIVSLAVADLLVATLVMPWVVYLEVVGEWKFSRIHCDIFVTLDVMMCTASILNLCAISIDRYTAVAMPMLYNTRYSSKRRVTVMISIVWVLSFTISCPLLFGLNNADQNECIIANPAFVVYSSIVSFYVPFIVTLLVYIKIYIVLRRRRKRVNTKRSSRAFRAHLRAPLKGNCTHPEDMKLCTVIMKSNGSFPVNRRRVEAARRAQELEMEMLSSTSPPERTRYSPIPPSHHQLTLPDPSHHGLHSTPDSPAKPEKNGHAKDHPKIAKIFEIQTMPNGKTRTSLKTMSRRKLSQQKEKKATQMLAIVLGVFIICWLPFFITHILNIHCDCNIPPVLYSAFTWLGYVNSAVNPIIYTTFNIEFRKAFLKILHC
Nature of the assay: In vitro binding affinity for human D2L receptor ([3H]Spiperone). On the procedure:
Frozen membranes of human Dopamine D2L receptor-transfected CHO cells were thawed, briefly homogenized using an Ultra-Turrax T25 homogenizer and diluted in Tris-HCl assay buffer containing NaCl, CaCl2, MgCl2, KCl ([…] respectively, adjusted to pH 7.7 with HCl) to an appropriate protein concentration optimized for specific and non-specific binding. Radioligand [^3H]Spiperone (NEN, specific activity ˜70 Ci/mmol) was diluted in assay buffer at a concentration of 2 nmol/L. Prepared radioligand (50 μl), along with 50 μl of either the 10% DMSO control, Butaclamol (10^−6 mol/l final concentration), or compound of interest, was then incubated (30 min, 37° C.) with 400 μl of the prepared membrane solution. Membrane-bound activity was filtered through a Packard Filtermate harvester onto GF/B Unifilter plates and washed with ice-cold Tris-HCl buffer (50 mM; pH 7.7; 6×0.5 ml). Filters were allowed to dry before adding scintillation fluid and counting in a Topcount scintillation counter. Percentage specific bound and competition binding curves were calculated using S-Plus software (Insightful).
as §2
The values in the Table are pIC50 values and were determined in accordance with the procedure given above for determining D2 affinity.

Assay [3] deals with T3, human cloned 5-HT2C receptor, expressed in CHO cells (Homo sapiens, UniProt P28335).
T3 construct: expressed in transfected cells; host or cells: CHO cells
T3 sequence (P28335 33-458): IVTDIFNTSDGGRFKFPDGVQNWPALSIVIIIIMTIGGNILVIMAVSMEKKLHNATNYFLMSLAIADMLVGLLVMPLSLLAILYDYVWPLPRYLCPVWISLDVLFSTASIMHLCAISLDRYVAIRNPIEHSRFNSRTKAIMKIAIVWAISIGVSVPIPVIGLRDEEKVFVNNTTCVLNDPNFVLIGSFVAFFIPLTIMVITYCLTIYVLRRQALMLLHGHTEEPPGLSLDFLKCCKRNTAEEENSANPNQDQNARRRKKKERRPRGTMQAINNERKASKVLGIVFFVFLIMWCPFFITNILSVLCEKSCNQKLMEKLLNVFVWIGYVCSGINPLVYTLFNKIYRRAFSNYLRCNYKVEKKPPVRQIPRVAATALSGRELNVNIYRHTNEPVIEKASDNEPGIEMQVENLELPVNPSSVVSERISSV
Nature of the assay: In vitro radioligand binding affinity for 5-HT2C receptor ([3H]mesulergine). Particulars: for IC50: human cloned receptor in CHO cells, [3H]mesulergine, read-out: 5-HT2C pIC50 (converted). The protocol: as §1, §2

The mark [4] stands for this setting: human D2L-transfected CHO cell membranes, [3H]Spiperone, read-out: D2L pIC50 (converted).
[5] abbreviates: Table 4, comparative data with prior art analogue.

pIC50: −log10 of the molar value. Like-named read-outs stand apart in the source and are kept apart here.

A word on the pIC50: it is the negative decadic logarithm of the IC50, by convention in mol/L. A lower pIC50 goes with a large IC50.

T1 sequence (P28223 whole entry): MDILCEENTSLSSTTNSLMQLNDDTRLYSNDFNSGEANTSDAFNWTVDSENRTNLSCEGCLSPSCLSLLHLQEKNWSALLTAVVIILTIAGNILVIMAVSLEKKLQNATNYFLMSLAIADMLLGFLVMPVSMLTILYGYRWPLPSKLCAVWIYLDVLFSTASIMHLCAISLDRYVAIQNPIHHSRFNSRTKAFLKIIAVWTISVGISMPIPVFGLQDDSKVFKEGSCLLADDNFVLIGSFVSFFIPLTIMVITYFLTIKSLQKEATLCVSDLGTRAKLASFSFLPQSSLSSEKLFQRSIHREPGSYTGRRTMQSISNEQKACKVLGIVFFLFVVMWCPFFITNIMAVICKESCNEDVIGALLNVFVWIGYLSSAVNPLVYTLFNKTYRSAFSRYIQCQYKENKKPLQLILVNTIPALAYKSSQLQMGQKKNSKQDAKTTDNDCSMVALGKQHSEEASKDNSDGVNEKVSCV

As to `CC1CCCN1C[C@H]1C[C@@H]2c3ccccc3Cc3ccc(F)cc3[C@H]2O1` (mixture of isomers) [Compound 16], the IC50 was 8.51 nM in assay [1], 40.7 nM in assay [2] (setting [4]) and 4.37 nM in assay [3].
Turning to `Fc1ccc2c(c1)C1OC(CN3CCCC3)CC1c1ccccc1C2` (stereo not drawn) [Compound 4], the IC50 in assay [1] is 4.68 nM; in assay [2] (setting [4]), 24 nM; in assay [3], 5.25 nM.
As for `CC(=O)OCCN1CCN(C[C@H]2C[C@@H]3c4ccccc4Cc4ccc(F)cc4[C@H]3O2)CC1` [Compound 5], the results for the IC50 in assay [1], in assay [2] (setting [4]) and in assay [3] were 14.5 nM, 7.41 nM and 19.1 nM, respectively.
Take `Fc1ccc2c(c1)[C@H]1O[C@@H](CN3CCCCCC3)C[C@@H]1c1ccccc1C2` [Compound 10]: the IC50 in assay [1] is 9.77 nM; in assay [2] (setting [4]), 16.2 nM; in assay [3], 3.09 nM.
For the compound `CC1CCN(C[C@H]2C[C@@H]3c4ccccc4Cc4ccc(F)cc4[C@H]3O2)CC1` [Compound 12], the figures for the IC50 in assay [1], in assay [2] (setting [4]) and in assay [3] were 3.89 nM, 1.35 nM and 1 nM, respectively.
With `Fc1ccc2c(c1)C1OC(CN3CCCCC3)CC1c1ccccc1C2` (stereo not drawn) [Compound 17], the IC50 is 1.91 nM in assay [1], 5.89 nM in assay [2] (setting [4]) and 1 nM in assay [3].
Turning to `CCOC(=O)N1CCN(C[C@H]2C[C@@H]3c4ccccc4Cc4ccc(F)cc4[C@H]3O2)CC1` [Compound 20], the IC50 in assay [1] is 4.27 nM; in assay [2] (setting [4]), 33.1 nM; in assay [3], 9.55 nM.
Take `CC(C)C(=O)N1CCN(C[C@H]2C[C@@H]3c4ccccc4Cc4ccc(F)cc4[C@H]3O2)CC1` [Compound 22]: the values for the IC50 in assay [1], in assay [2] (setting [4]) and in assay [3] were 3.8 nM, 34.7 nM and 39.8 nM, respectively.
In the same order, the values of `OC(CN1CCN(C[C@H]2C[C@@H]3c4ccccc4Cc4ccc(F)cc4[C@H]3O2)CC1)c1ccccc1` (stereo partly drawn) [Compound 27] are 9.55 nM, 4.07 nM and 20.4 nM.
`OC(Cc1ccccc1)CN1CCN(CC2CC3c4ccccc4Cc4ccc(F)cc4C3O2)CC1` (stereo not drawn) [Compound 28]: the IC50 in assay [1] was 4.79 nM; in assay [2] (setting [4]), 4.57 nM; in assay [3], 10.7 nM. Moreover, in assay [2] (setting [5]), the “h-D2L pIC50” value worked out at 8.34.
For the compound `CCCCC(O)CN1CCN(CC2CC3c4ccccc4Cc4ccc(F)cc4C3O2)CC1` (stereo not drawn) [Compound 29], the results for the IC50 in assay [1], in assay [2] (setting [4]) and in assay [3] were 10 nM, 6.03 nM and 23.4 nM, respectively. Also, in assay [2] (setting [5]), the “h-D2L pIC50” value was 8.22.
Turning to `COC(=O)N1CCN(C[C@H]2C[C@@H]3c4ccccc4Cc4ccc(F)cc4[C@H]3O2)CC1` [Compound 31], the IC50 in assay [1] was 4.68 nM; in assay [2] (setting [4]), 14.1 nM; in assay [3], 13.8 nM.
`CC(C)OC(=O)N1CCN(C[C@H]2C[C@@H]3c4ccccc4Cc4ccc(F)cc4[C@H]3O2)CC1` [Compound 32]: the IC50 in assay [1] was 5.13 nM; in assay [2] (setting [4]), 22.9 nM; in assay [3] it was 32.4 nM.
Turning to `CCCCOC(=O)N1CCN(C[C@H]2C[C@@H]3c4ccccc4Cc4ccc(F)cc4[C@H]3O2)CC1` [Compound 33], the IC50 in assay [1] was 11.7 nM; in assay [2] (setting [4]) it was 17 nM; in assay [3] it was 38 nM.
Regarding `CCOCCN1CCN(C[C@H]2C[C@@H]3c4ccccc4Cc4ccc(F)cc4[C@H]3O2)CC1` [Compound 34], the IC50 in assay [1] was 0.851 nM; in assay [2] (setting [4]) it was 2.51 nM; in assay [3], 5.01 nM.
Take `COCCN1CCN(C[C@H]2C[C@@H]3c4ccccc4Cc4ccc(F)cc4[C@H]3O2)CC1` [Compound 35]: the results for the IC50 in assay [1], in assay [2] (setting [4]) and in assay [3] were 1.51 nM, 3.09 nM and 7.41 nM, respectively.
In the case of `CC(C)(C)OCCN1CCN(C[C@H]2C[C@@H]3c4ccccc4Cc4ccc(F)cc4[C@H]3O2)CC1` [Compound 36], the IC50 is 0.955 nM in assay [1], 3.72 nM in assay [2] (setting [4]) and 5.5 nM in assay [3].
On to `OCCN1CCN(C[C@H]2C[C@@H]3c4ccccc4Sc4ccc(F)cc4[C@H]3O2)CC1` [Compound 39], for which the IC50 in assay [1] was 0.692 nM; in assay [2] (setting [4]), 2 nM; in assay [3], 6.92 nM.
The matching figures for `CC(C)CN1CCN(C[C@H]2C[C@@H]3c4ccccc4Cc4ccc(F)cc4[C@H]3O2)CC1` [Compound 40]: 26.9 nM, 12.3 nM and 52.5 nM.
Regarding `Fc1ccc2c(c1)[C@H]1O[C@@H](CN3CCN(CC(c4ccccc4)c4ccccc4)CC3)C[C@@H]1c1ccccc1C2` [Compound 41], the values for the IC50 in assay [1], in assay [2] (setting [4]) and in assay [3] were 97.7 nM, 95.5 nM and 295 nM, respectively.
Regarding `Fc1ccc2c(c1)[C@H]1O[C@@H](CN3CCN(Cc4ccc(Cl)cc4)CC3)C[C@@H]1c1ccccc1C2` [Compound 42], the pIC50 in assay [1] was 7.31; in assay [2] it was 7.55; in assay [3] it was 7.11.
In the same order, the values of `Cc1ccccc1CN1CCN(C[C@H]2C[C@@H]3c4ccccc4Cc4ccc(F)cc4[C@H]3O2)CC1` [Compound 43] are 7.39, 7.35 and 6.98.
Take `Fc1ccc2c(c1)[C@H]1O[C@@H](CN3CCN(Cc4ccccc4)CC3)C[C@@H]1c1ccccc1C2` [Compound 45]: the values for the negative logarithm of the IC50 (pIC50) in assay [1], in assay [2] and in assay [3] were 7.73, 8.10 and 7.34, respectively.
Turning to `OC(CCN1CCN(C[C@H]2C[C@@H]3c4ccccc4Cc4ccc(F)cc4[C@H]3O2)CC1)c1ccc(F)cc1` (stereo partly drawn) [Compound 46], the values for the IC50 in assay [1], in assay [2] (setting [4]) and in assay [3] were 5.13 nM, 1.12 nM and 8.51 nM, respectively.
Take `Fc1ccc(CN2CCN(C[C@H]3C[C@@H]4c5ccccc5Cc5ccc(F)cc5[C@H]4O3)CC2)cc1` [Compound 47]: the pIC50 was 7.51 in assay [1], 8.04 in assay [2] and 6.89 in assay [3].
`Fc1ccc2c(c1)[C@H]1O[C@@H](CN3CCN(Cc4ccc(C(F)(F)F)cc4)CC3)C[C@@H]1c1ccccc1C2` [Compound 48]: the pIC50 is 6.63 in assay [1], 7.07 in assay [2] and 6.52 in assay [3].
As for `OCCN1CCN(CC2CC3c4ccccc4Cc4ccc(F)cc4C3O2)CC1` (stereo not drawn) [Prior art compound 21from WO 99/19317, reference compound], the IC50 in assay [2] (Table 4, comparative data with prior art analogue, read-out: h-D2L pIC50 (converted)) was 110 nM.

These data come from US20080214572A1, “Selected Tetracyclic Tetrahydrofuran Derivatives Containing a Cyclic Amine Side Chain” (priority 2005, published 2008).
